“And” between values parts separate entries of the source, which are not always exact repeats. Identical values can stand only once.
System: serum calcium
Experiment: 5/6 nephrectomized rats study: serum calcium level
Format: in vivo, rat
Parameters: Serum Ca levels: unit not given here
Conditions: 5/6 Nx rats
Description: Rats were 5/6 nephrectomized in two steps. Under anesthesia (pentobarbital, 50 mg/kg; intraperitoneally) and analgesia (lidocaine; topically), two-thirds of the left kidney was removed, and then the right kidney was removed after a seven-day interval. Seven days after the completion of 5/6 nephrectomy, the FR-2 diet was changed to a high-phosphate diet, containing 0.6% calcium and 0.9% phosphate (Oriental Yeast Co., Ltd., Tokyo, Japan). Approximately 2 weeks after the initiation of the high-phosphate diet, the 5/6 Nx rats were divided into five groups (n = 12/group) matched in terms of their body weight as well as their blood urea nitrogen (BUN) and serum PTH and calcium levels.
In the single-dose study, blood samples were collected from the tail vein before and at 0.5, 2, 4, 8, 24, 48, and 72 h after the oral administration of vehicle (0.5% methyl cellulose solution) or evocalcet (0.03, 0.1, 0.3, or 1 mg/kg). In the repeated-dose study, vehicle or evocalcet was orally administered to the respective groups once daily for 14 days. Blood samples were obtained from the tail vein before the first administration and after the seventh and last administrations.
The serum PTH level was measured using a Rat Intact PTH ELISA kit (Immutopics, Inc., San Clemente, CA). The serum calcium, phosphate and BUN levels were measured using an auto analyzer (Hitachi High-Technologies Corporation., Tokyo, Japan) or the following test kits: the Calcium E-test WAKO, the Phospha C-test WAKO, or the Blood Urea nitrogen B-test WAKO (Wako Pure Chemical Industries, Ltd., Osaka, Japan).

Compound: C[C@@H](N[C@H]1CCN(c2ccc(CC(=O)O)cc2)C1)c1cccc2ccccc12 [evocalcet]
- Serum Ca levels before (day 0) and 24 h after evocalcet administration (0.03 mg/kg, day 7 (24 h), individual rats, 0.03 mg/kg): 4.756 and 6.463 and 7.204 and 6.649 and 7.424 and 7.568 and 6.316 and 6.947 and 6.611 and 7.154 and 6.338 and 6.972
- Serum Ca levels before (day 0) and 24 h after evocalcet administration, Mean (0.03 mg/kg, day 14 (24 h), group mean): 7.524
- Serum Ca levels before (day 0) and 24 h after evocalcet administration (0.03 mg/kg, day 14 (24 h), individual rats, 0.03 mg/kg): 6.629 and 7.365 and 7.620 and 6.148 and 7.312 and 8.717 and 7.991 and 8.107 and 7.192 and 7.532 and 7.865 and 7.809
- Serum Ca levels after the first administration, Mean (0.03 mg/kg, time 0 h, group mean): 7.862
- Serum Ca levels after the first administration (0.03 mg/kg, time 0 h, individual rats): 6.475 and 7.379 and 7.410 and 6.746 and 6.842 and 8.689
- Serum Ca levels after the first administration, Mean (0.03 mg/kg, time 0.5 h, group mean): 7.066
- Serum Ca levels after the first administration (0.03 mg/kg, time 0.5 h, individual rats): 5.843 and 6.570 and 6.547 and 6.666 and 6.639 and 7.943
- Serum Ca levels after the first administration, Mean (0.03 mg/kg, time 2 h, group mean): 7.130
- Serum Ca levels after the first administration (0.03 mg/kg, time 2 h, individual rats): 6.221 and 6.752 and 6.943 and 6.746 and 6.851 and 7.851
- Serum Ca levels after the first administration, Mean (0.03 mg/kg, time 4 h, group mean): 7.511
- Serum Ca levels after the first administration (0.03 mg/kg, time 4 h, individual rats): 6.129 and 7.183 and 6.895 and 7.539 and 6.860 and 8.183
- Serum Ca levels after the first administration, Mean (0.03 mg/kg, time 8 h, group mean): 7.889
- Serum Ca levels after the first administration (0.03 mg/kg, time 8 h, individual rats): 7.265 and 7.625 and 7.368 and 8.097 and 7.474 and 8.633
- Serum Ca levels after the first administration, Mean (0.03 mg/kg, time 24 h, group mean): 7.657
- Serum Ca levels after the first administration (0.03 mg/kg, time 24 h, individual rats): 7.337 and 7.644 and 7.429 and 7.568 and 7.040 and 8.620
- Serum Ca levels before (day 0) and 24 h after evocalcet administration, Mean (0.1 mg/kg, day 0 (Before), group mean): 7.709
- Serum Ca levels before (day 0) and 24 h after evocalcet administration (0.1 mg/kg, day 0 (Before), individual rats, 0.1 mg/kg): 7.331 and 8.275 and 7.642 and 7.659 and 8.173 and 8.364 and 6.513 and 7.933 and 8.070 and 7.690 and 6.674 and 8.180
- Serum Ca levels before (day 0) and 24 h after evocalcet administration, Mean (0.1 mg/kg, day 7 (24 h), group mean): 7.317
- Serum Ca levels before (day 0) and 24 h after evocalcet administration (0.1 mg/kg, day 7 (24 h), individual rats, 0.1 mg/kg): 7.427 and 8.099 and 7.493 and 7.242 and 7.637 and 7.025 and 6.448 and 7.138 and 7.123 and 6.680 and 7.302 and 8.184
- Serum Ca levels before (day 0) and 24 h after evocalcet administration, Mean (0.1 mg/kg, day 14 (24 h), group mean): 7.011
- Serum Ca levels before (day 0) and 24 h after evocalcet administration (0.1 mg/kg, day 14 (24 h), individual rats, 0.1 mg/kg): 7.048 and 7.642 and 6.969 and 7.601 and 6.617 and 6.853 and 5.928 and 7.145 and 7.117 and 6.576 and 7.375 and 7.261
- Serum Ca levels after the first administration, Mean (0.1 mg/kg, time 0 h, group mean): 7.709
- Serum Ca levels after the first administration (0.1 mg/kg, time 0 h, individual rats): 7.331 and 8.275 and 7.642 and 7.659 and 8.173 and 8.364 and 6.513 and 7.933 and 8.070 and 7.690 and 6.674
- Serum Ca levels after the first administration, Mean (0.1 mg/kg, time 0.5 h, group mean): 6.755
- Serum Ca levels after the first administration (0.1 mg/kg, time 0.5 h, individual rats): 6.761 and 6.580 and 6.840 and 7.344 and 6.409 and 6.926 and 6.241 and 6.919 and 6.445 and 6.968 and 6.307
- Serum Ca levels after the first administration, Mean (0.1 mg/kg, time 2 h, group mean): 6.694
- Serum Ca levels after the first administration (0.1 mg/kg, time 2 h, individual rats): 6.582 and 6.412 and 6.604 and 7.150 and 6.977 and 6.857 and 5.795 and 6.903 and 7.147 and 6.715 and 6.267
- Serum Ca levels after the first administration, Mean (0.1 mg/kg, time 4 h, group mean): 7.099
- Serum Ca levels after the first administration (0.1 mg/kg, time 4 h, individual rats): 7.060 and 7.085 and 7.028 and 7.482 and 7.364 and 7.406 and 5.948 and 7.326 and 7.361 and 7.050 and 6.742
- Serum Ca levels after the first administration, Mean (0.1 mg/kg, time 8 h, group mean): 7.285
- Serum Ca levels after the first administration (0.1 mg/kg, time 8 h, individual rats): 7.692 and 7.609 and 7.307 and 7.085 and 7.975 and 4.442 and 6.559 and 7.908 and 8.235 and 7.683
- Serum Ca levels after the first administration, Mean (0.1 mg/kg, time 24 h, group mean): 7.626
- Serum Ca levels after the first administration (0.1 mg/kg, time 24 h, individual rats): 7.618 and 8.042 and 7.976 and 7.739 and 7.539 and 7.979 and 6.079 and 7.486 and 8.194 and 7.356
- Serum Ca levels (0.3 mg/kg, day 0 (before), group mean): 7.177
- Serum Ca levels (0.3 mg/kg, day 0 (before), individual rats, 0.3 mg/kg): 7.714 and 7.098 and 4.207 and 6.520 and 8.019 and 4.857 and 7.006 and 8.419 and 8.245 and 7.878 and 7.711 and 8.450
- Serum Ca levels (0.3 mg/kg, day 7 (24 h after administration), group mean): 5.744
- Serum Ca levels (0.3 mg/kg, day 7 (24 h after administration), individual rats, 0.3 mg/kg): 6.617 and 4.991 and 5.484 and 4.834 and 5.302 and 6.718 and 6.297 and 6.366 and 7.085 and 5.154 and 4.887 and 5.195
- Serum Ca levels (0.3 mg/kg, day 14 (24 h after administration), group mean): 5.948
- Serum Ca levels (0.3 mg/kg, day 14 (24 h after administration), individual rats, 0.3 mg/kg): 6.601 and 5.324 and 6.337 and 4.673 and 5.104 and 7.592 and 6.733 and 6.057 and 5.865 and 5.887 and 5.547 and 5.661
- Serum Ca levels after the first administration, Mean (0.3 mg/kg, time 0 h, group mean): 7.177
- Serum Ca levels after the first administration, Mean (0.3 mg/kg, time 0.5 h, group mean): 6.778
- Serum Ca levels after the first administration, Mean (0.3 mg/kg, time 2 h, group mean): 6.136
- Serum Ca levels after the first administration, Mean (0.3 mg/kg, time 4 h, group mean): 6.714
- Serum Ca levels after the first administration, Mean (0.3 mg/kg, time 8 h, group mean): 7.218
- Serum Ca levels after the first administration, Mean (0.3 mg/kg, time 24 h, group mean): 7.101
- Serum Ca levels (1 mg/kg, day 0 (before), group mean): 7.784
- Serum Ca levels (1 mg/kg, day 0 (before), individual rats, 1 mg/kg): 7.396 and 7.591 and 7.831 and 7.728 and 8.433 and 7.868 and 8.231 and 7.824 and 8.217 and 9.292 and 6.900 and 6.102
- Serum Ca levels (1 mg/kg, day 7 (24 h after administration), group mean): 5.027
- Serum Ca levels (1 mg/kg, day 7 (24 h after administration), individual rats, 1 mg/kg): 5.540 and 3.798 and 5.148 and 4.511 and 4.963 and 5.487 and 4.665 and 5.044 and 4.307 and 5.493 and 4.570 and 6.793
- Serum Ca levels (1 mg/kg, day 14 (24 h after administration), group mean): 4.801
- Serum Ca levels (1 mg/kg, day 14 (24 h after administration), individual rats, 1 mg/kg): 5.359 and 3.730 and 4.903 and 4.736 and 4.928 and 5.192 and 4.708 and 5.906 and 3.598 and 4.859 and 4.220 and 5.475
- Serum Ca levels after the first administration, Mean (1 mg/kg, time 0 h, group mean): 7.784
- Serum Ca levels after the first administration, Mean (1 mg/kg, time 0.5 h, group mean): 6.460
- Serum Ca levels after the first administration, Mean (1 mg/kg, time 2 h, group mean): 5.290
- Serum Ca levels after the first administration, Mean (1 mg/kg, time 4 h, group mean): 5.870
- Serum Ca levels after the first administration, Mean (1 mg/kg, time 8 h, group mean): 6.299
- Serum Ca levels after the first administration, Mean (1 mg/kg, time 24 h, group mean): 6.253
- Doses that steadily decreased the serum calcium level (once daily oral for 14 days, 24 h after administration on days 7 and 14): ≥ 0.3 mg/kg
- Doses that significantly decreased the serum calcium level (single oral dose, vs vehicle group): ≥ 0.1 mg/kg

Source: paper PMC5882164, “A novel calcimimetic agent, evocalcet (MT-4580/KHK7580), suppresses the parathyroid cell function with little effect on the gastrointestinal tract or CYP isozymes in vivo and in vitro” (PLoS ONE, 2018)
